{
  "source": "patent US9522163B2",
  "about": "“Methods of treating hepatitis” (priority 2002, dated 2016)",
  "key": {"NF-κB": {"system": "NF-κB", "experiment": "NF-κB luciferase reporter assay in hepatocytes", "assay_type": "cell-based, mouse", "conditions": "CO 250 ppm; reporter activity peaked one hour after placing cells in CO", "experimental": "In some experiments, gene transfer of an IκBα superrepressor (Hellerbrand et al., Hepatology 27:1285-1295 (1998)) or β-galactosidase using adenoviral vectors (10 pfu/cell) was performed 12 hours prior to TNF-α/ActD treatment. NF-κB activation was evaluated using a luciferase reporter assay as described in Chow et al. (J. Biol. Chem. 274: 10689-10692 (1999)). Briefly, hepatocytes were co-transfected with NF-κB reporter constructs (pGL3-kappaβ luciferase, 100 ng/well; and pIEP-Lac-z 0.5 μg/well) using Lipofectin™ (Invitrogen, Carlsbad, Calif.) as instructed by the manufacturer. Evaluation of iNOS expression was performed using a luciferase reporter assay as described in Lowenstein et al. (Proc. Natl. Acad. Sci. U.S.A 90: 9730-9734 (1993)). Briefly, hepatocytes were co-transfected with iNOS promoter reporter constructs (pXP2; 1 μg/well) and pIEP-LacZ (0.5 μg/well) as described above.\nHepatocytes were transfected with plasmids as described above and treated with various stimuli 24 hours after transfection. […] Results were corrected for transfection efficiency and protein concentration.\nTo generate the data presented in FIG. 4, evaluation of NF-κB activation was performed using a luciferase reporter assay as described in Chow et al. (J. Biol. Chem. 274: 10689-10692 (1999)). […]"}, "[1]": {"system": "human primary hepatocytes", "experiment": "TNF-α/ActD-induced cell death in human hepatocytes", "assay_type": "cell-based", "conditions": "exposure to CO", "experimental": "(§1) Cells were treated with TNF-α (10 ng/ml) and actinomycin-D (Act-D; 200 ng/ml, Sigma Chemical Co. St. Louis, Mo.) to induce cell death.\nTo generate the data presented in FIG. 3, human primary hepatocytes obtained from a donor liver resection were treated with CO and TNF-α/ActD as described above."}, "[2]": {"system": "acetaminophen-induced liver injury", "experiment": "Acetaminophen (APAP)-induced hepatitis model", "assay_type": "in vivo, mice", "experimental": "The animals were exposed to CO at a concentration of 250 ppm. […] Mice were placed in the exposure chamber as required.\nTo generate the data in FIG. 21, Male C57BL/6J mice were exposed to CO (250 ppm) either 1 hr prior or 4 hr post administration of APAP (500 mg/kg, i.p.). The mice were then maintained in CO for the duration of the experiment. Serum ALT levels were determined 20 hr after APAP administration. Control mice received APAP and were maintained in air. This protocol was designed to allow hepatitis to develop for four hours before administering CO."}, "HO-1": {"system": "HO-1", "experiment": "Liver HO-1 expression (immunoblot)", "assay_type": "in vivo, mice", "experimental": "Western blot analysis was performed on primary hepatocytes in culture or from liver homogenates with antibodies to iNOS (Transduction Laboratories, Lexington, Ky.; 1:1000), HO-1 (Calbiochem; 1:2000), or β-actin (Sigma Chemical; 1:5000). Thirty μg protein in cell culture experiments or 100 μg protein from liver homogenates was loaded per well for SDS-PAGE.\nTo assess the role of iNOS on TNF-α/D-gal-induced HO-1 expression in the liver (data presented in FIG. 16), mice were administered L-NIL (5 mg/kg, i.p.) 2 hr prior to pre-treatment with CO (250 ppm) and every 2 hr thereafter. Control mice received L-NIL and remained in room air."}, "[3]": {"system": "mouse primary hepatocytes", "experiment": "TNF-α/ActD-induced cell death, crystal violet viability", "assay_type": "cell-based", "experimental": "Mouse primary hepatocytes were harvested from C57BL/6J, mkk3^−/−, inos^−/− (in-house breeding colony), or hmox-1^−/− mice as described in Kim et al. (J. Biol. Chem. 272: 1402-1411 (1997)). Hepatocytes were used on days 1-3 following harvest.\nas §1\nWhether exogenous CO is protective against hepatocyte cell death in vitro was investigated. To generate the data presented in FIG. 2, mouse hepatocytes were pre-incubated with CO (250 ppm) for 1 hr (standard pre-treatment time for all experiments) prior to addition of TNF-α/Act-D (10 ng/200 ng/ml respectively). Cells were maintained in CO for the duration of the experiment. Twelve hours afterward, cell viability was measured as described in Kim et al. (J. Biol. Chem. 272: 1402-1411 (1997)). Adenoviral experiments involved incubating hepatocytes overnight with 10 pfu/cell of the adenovirus prior to addition of TNF-α/ActD, and then assaying for viability using crystal violet. The roles of signaling molecules guanylyl cyclase and p38 MAPK were also investigated in this model. To evaluate the role of cGMP and confirm the role of NF-κB, hepatocytes were treated separately with the soluble guanylate cyclase (sGC) inhibitor 1H-[1,2,4]Oxadiazolo[4,3-a]quinoxalin-1-one (ODQ; Calbiochem; 2-10 μM) or the NF-κB inhibitor BAY 11-7082, (10 μM). Cells were treated with the inhibitors for 1 hour prior to the 1 hour pretreatment with CO. TNF-α/ActD was then added and the cells tested for viability 12 hours later. NF-κB activation was critical to the protection elicited by CO while cGMP was not involved.\nTo generate the data presented in FIG. 9, mouse hepatocytes were isolated from inos^−/− or from wild type C57BL/6J mice, which were then pre-treated for 1 hr with L-NIO (1 mM) to inhibit iNOS prior to CO administration. Those groups exposed to CO received a one-hour pretreatment prior to addition of TNF-α/ActD and were then returned to CO exposure.\nTo generate the data presented in FIG. 19, mouse hepatocytes were isolated from HO-1 null mice (hmox-1^−/−) and wild type (C57BL/6J) littermates, pretreated for 1 hour with CO (250 ppm), and treated with TNF-α/ActD. Viability was assayed as described above.\nTo generate the data presented in FIG. 20, mouse hepatocytes were isolated from HO-1 null mice (hmox-1^−/−) and wild type (C57BL/6J) littermates, pretreated with the NO donor SNAP (500 μM), and then treated with TNF-α/ActD 1 hour later."}},
  "note": "Entries after “also recorded” stand apart in the source; their conditions may differ.",
  "data": [
    {"smiles": "[C-]#[O+]", "note": "[CO, carbon monoxide]", "values": [
      {"measurement": "NF-κB activation (luciferase reporter, EMSA, immunostaining)", "setting": "NF-κB", "value": "moderate increase"},
      {"measurement": "TNF-α induced apoptosis", "setting": "[1]", "value": "inhibited TNF-α induced apoptosis"},
      {"measurement": "Protection with CO pre-treatment prior to APAP compared with post-treatment", "setting": "[2]; CO 250 ppm 1 hr prior to APAP", "value": "protection was similar"},
      {"measurement": "Serum ALT", "setting": "[2]; CO 250 ppm from 4 hr post APAP 500 mg/kg i.p., 20 hr after APAP, controls 622±44", "value": "175±137"},
      {"measurement": "Reduction in liver injury", "setting": "[2]; CO 4 hours after APAP 500 mg/kg i.p.", "value": 62, "unit": "%"},
      {"measurement": "Liver HO-1 expression when iNOS was inhibited", "setting": "HO-1; CO 250 ppm with L-NIL 5 mg/kg i.p. every 2 hr", "value": "unable to induce expression"},
      {"measurement": "Liver HO-1 expression", "setting": "HO-1; CO 250 ppm, presence and absence of TNF-α/D-gal", "value": "significant increase"},
      {"measurement": "TNF-α/ActD-induced cell death, hmox-1−/− hepatocytes", "setting": "[3]; CO 250 ppm, 1 hour pretreatment", "value": "unable to protect"},
      {"measurement": "TNF-α/ActD-induced cell death, wild type hepatocytes", "setting": "[3]; CO 250 ppm, 1 hr pre-incubation and maintained, viability 12 hours", "value": "significantly less cell death; also recorded: significantly protected"},
      {"measurement": "Cell death in the presence of SB203580", "setting": "[3]; SB203580 3-30 μM, data not shown", "value": "inhibited cell death"},
      {"measurement": "Cell death in hepatocytes from mkk3−/− mice", "setting": "[3]; data not shown", "value": "inhibited cell death"},
      {"measurement": "Protection when CO treatment initiated after addition of TNF-α", "setting": "[3]; data not shown", "value": "less protection was observed"},
      {"measurement": "Protection against cell death where iNOS expression was absent or inhibited", "setting": "[3]; inos−/− hepatocytes or wild type with L-NIO 1 mM, 12 hr", "value": "did not provide protection"}
    ]}
  ]
}
